In paper PMC12523843, “Kuwanon A Targeted YWHAB in Hepatocellular Carcinoma Cells to Inhibit the Raf/MEK/ERK Signaling Pathway” (Cells, 2025):
Where two headings read alike, the source gives them in different places. Blank lines part the entries; values can stand above or below the molecule they belong to.

Columns and labels:
[1] = test system: HCC cells (MHCC97 H and SMMC 7721); assay: Transwell migration (without Matrix-Gel) and invasion (with Matrix-Gel) assay; format: cell-based, human; conditions: Sorafenib 10 μM alone or 10 μM KA and 10 μM Sorafenib, 48 h
Procedure: The Transwell assay measured the migration and invasion of cells by calculating the number of cells that passed through the material. Prior to the Transwell migration assay, cells were serum-starved in FBS-free culture medium for 24 h. The cells were then detached using trypsin, washed 1–2 times with PBS, and resuspended in DMEM. Approximately 50,000–100,000 cells were seeded into the upper chamber of the Transwell insert. The lower chamber was filled with 600 μL of complete medium containing the test compound. […] After incubation, the migrated cells on the lower membrane surface were fixed with 4% paraformaldehyde (PFA) and stained with 0.1% crystal violet. Non-migrated cells remaining in the upper chamber were carefully removed with a cotton swab. Finally, the stained cells were visualized under a microscope. If matrix gel was needed, it should be added according to the instructions (Beyotime, Shanghai, China) before the cells were seeded.

[2] = test system: MHCC97 H cells; set-up: method as in MCE website (https://www.medchemexpress.cn/); conditions: ref MCE website (https://www.medchemexpress.cn/); read-out: IC50 of Sorafenib in MHCC97 H; cited from earlier work
[3] = test system: SMMC 7721 cells; set-up: method as in MCE website (https://www.medchemexpress.cn/); conditions: ref MCE website (https://www.medchemexpress.cn/); read-out: IC50 of Sorafenib in SMMC 7721; cited from earlier work
[4] = test system: MHCC97 H cells; assay: MTT IC50 determination in MHCC97 H; format: cell-based, human; conditions: MTT method, read-out: IC50 in MHCC97 H (screen)
Procedure: (§1) Cell viability was assessed using MTT experiments. Cells, together with KA, were seeded into 96-well plates at a density of 2000 cells per well with three replicates per condition. DMSO was used as a control. At designated time points, 20 μL of MTT (Sigma, St. Louis, MO, USA) solution was added to each well and incubated for 3 h. After removing the culture medium, 200 μL of DMSO was added to dissolve the formazan crystals. The absorbance was then measured using a microplate reader at a wavelength of 560 nm.

[5] = test system: MHCC97H and SMMC 7721 cells; assay: CCK8 cell viability screen of mulberry active substances; format: cell-based, human; conditions: 10 μM, 48 h
Procedure: The CCK8 assay is used to investigate the effect of compounds on cell viability by measuring the amount of formazan dye. Firstly, 8000 cells were inoculated into each well of the 96-well plate with three replicates per condition. At the same time, add the corresponding mulberry active substances. After 48 h of incubation, 20 μL of the Cell Counting Kit-8 (CCK8) reagent (Beyotime, Shanghai, China) was added to each well. After being cultured under 37 °C and 5% carbon dioxide for 2–3 h, the absorbance was measured at 450 nm.

[6] = test system: normal human liver cells (L-O2); assay: MTT IC50 determination in normal liver cells; format: cell-based; conditions: L-O2, MTT method
Procedure: as §1

[7] = test system: MHCC97 H cells; assay: Transwell migration screen of selected compounds; format: cell-based, human; conditions: compounds at an IC50 concentration
Procedure: The Transwell assay measured the migration and invasion of cells by calculating the number of cells that passed through the material. Prior to the Transwell migration assay, cells were serum-starved in FBS-free culture medium for 24 h. The cells were then detached using trypsin, washed 1–2 times with PBS, and resuspended in DMEM. Approximately 50,000–100,000 cells were seeded into the upper chamber of the Transwell insert. The lower chamber was filled with 600 μL of complete medium containing the test compound. The Transwell system was incubated for 12 h under standard culture conditions (37 °C, 5% CO2). After incubation, the migrated cells on the lower membrane surface were fixed with 4% paraformaldehyde (PFA) and stained with 0.1% crystal violet. Non-migrated cells remaining in the upper chamber were carefully removed with a cotton swab. Finally, the stained cells were visualized under a microscope. If matrix gel was needed, it should be added according to the instructions (Beyotime, Shanghai, China) before the cells were seeded.

[8] = molecular target: T1, YWHAB (tyrosine 3-monooxygenase/tryptophan 5-monooxygenase activation protein beta), endogenous in HCC cells (human (endogenous in MHCC97 H and SMMC 7721)), P31946; assay: native gel or EMSA; Blue native PAGE of cell lysates (IP cell lysis buffer, Coomassie G-250), then immunoblot; cells treated with KA or DMSO (less dimer with KA); conditions: remark: other sources report otherwise
T1 chain: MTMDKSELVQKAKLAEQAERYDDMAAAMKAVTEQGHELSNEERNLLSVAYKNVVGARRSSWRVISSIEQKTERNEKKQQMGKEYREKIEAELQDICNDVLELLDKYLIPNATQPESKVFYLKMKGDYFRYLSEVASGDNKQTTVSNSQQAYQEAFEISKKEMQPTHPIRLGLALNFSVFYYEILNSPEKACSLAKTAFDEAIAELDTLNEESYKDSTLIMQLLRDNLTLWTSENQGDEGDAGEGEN

[9] = molecular target: T2, FLAG-YWHAB, P31946; assay: as above; conditions: remark: other sources report otherwise
T2 chain: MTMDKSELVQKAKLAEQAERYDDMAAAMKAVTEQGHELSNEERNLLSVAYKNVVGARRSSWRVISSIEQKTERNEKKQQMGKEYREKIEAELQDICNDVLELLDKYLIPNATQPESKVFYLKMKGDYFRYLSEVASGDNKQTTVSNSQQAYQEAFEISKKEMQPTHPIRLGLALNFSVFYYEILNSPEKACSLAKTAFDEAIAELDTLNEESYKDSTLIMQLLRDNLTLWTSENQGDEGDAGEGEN

Molecule: CNC(=O)c1cc(Oc2ccc(NC(=O)Nc3ccc(Cl)c(C(F)(F)F)c3)cc2)ccn1 [Sorafenib]
HCC cell migration/invasion (Transwell, polycarbonate membrane or Matrigel) [1]: no significant effect | IC50 [2]: ~10 µM | IC50 [3]: ~10 µM

Molecule: CC(C)=CCc1c(-c2ccc(O)cc2O)oc2c3c(cc(O)c2c1=O)OC(C)(C)C=C3 [Morusin]
IC50 ([4]; Homo sapiens, MHCC97H): < 20 µM

Molecule: Cc1cc2c3c(c1)-c1c(O)cc(-c4cc5ccc(O)cc5o4)cc1OC3(c1ccc(O)cc1O)Oc1cc(O)ccc1-2 (centres unmarked) [Albanol B, albanol B]
viability of HCC cells (CCK8) [5]: significantly inhibited the viability of HCC cells | IC50 [4]: < 20 µM | IC50 in normal liver cells [6]: relatively low | migration of MHCC97 H (Transwell) [7]: significantly inhibited the migration of MHCC97 H

Molecule: sanggenone C
viability of HCC cells (CCK8) [5]: significantly inhibited the viability of HCC cells | IC50 [4]: < 20 µM

Molecule: CC(C)=CCC/C(C)=C/Cc1c(O)ccc(-c2oc3cc(O)cc(O)c3c(=O)c2CC=C(C)C)c1O [L8-06, 3'-geranyl-3-prenyl-2',4',5,7-tetrahydroxyflavone]
IC50 ([4]; Homo sapiens, MHCC97H): < 20 µM

Molecule: sanggenone D
IC50 [4]: < 20 µM

Molecule: CC(C)(O)CCc1c(-c2ccc(O)cc2O)oc2c3c(cc(O)c2c1=O)OC(C)(C)C=C3 [Morusinol]
IC50 ([4]; Homo sapiens, MHCC97H): < 20 µM

Molecule: sanggenol L
viability of HCC cells (CCK8) [5]: significantly inhibited the viability of HCC cells | IC50 [4]: < 20 µM | migration of MHCC97 H (Transwell) [7]: significantly inhibited the migration of MHCC97 H

Molecule: CC(C)=CCc1c(-c2ccc(O)cc2O)oc2c([C@H]3C=C(C)C[C@@H](c4ccc(O)cc4O)[C@@H]3C(=O)c3ccc(O)cc3O)c(O)cc(O)c2c1=O [Kuwanon G, kuwanon G]
IC50 [4]: < 20 µM

Molecule: CC(C)=CCc1c(-c2ccc(O)cc2O)oc2c(CC=C(C)C)c(O)cc(O)c2c1=O [Mulberrin]
IC50 [4]: < 20 µM

stoichiometry N [8]: 2
B1: YWHAB (tyrosine 3-monooxygenase/tryptophan 5-monooxygenase activation protein beta), endogenous in HCC cells, P31946 1-246 (natural protein)
chain: MTMDKSELVQKAKLAEQAERYDDMAAAMKAVTEQGHELSNEERNLLSVAYKNVVGARRSSWRVISSIEQKTERNEKKQQMGKEYREKIEAELQDICNDVLELLDKYLIPNATQPESKVFYLKMKGDYFRYLSEVASGDNKQTTVSNSQQAYQEAFEISKKEMQPTHPIRLGLALNFSVFYYEILNSPEKACSLAKTAFDEAIAELDTLNEESYKDSTLIMQLLRDNLTLWTSENQGDEGDAGEGEN

stoichiometry N [9]: 2
B2: FLAG-YWHAB, P31946 1-246 (natural protein)
chain: MTMDKSELVQKAKLAEQAERYDDMAAAMKAVTEQGHELSNEERNLLSVAYKNVVGARRSSWRVISSIEQKTERNEKKQQMGKEYREKIEAELQDICNDVLELLDKYLIPNATQPESKVFYLKMKGDYFRYLSEVASGDNKQTTVSNSQQAYQEAFEISKKEMQPTHPIRLGLALNFSVFYYEILNSPEKACSLAKTAFDEAIAELDTLNEESYKDSTLIMQLLRDNLTLWTSENQGDEGDAGEGEN
